Test results published in publication PMC12125794 (Annals of Clinical Microbiology and Antimicrobials, 2025).

Experiments:
KPC-2 [1] = biological target: T1, KPC-2 (Klebsiella pneumoniae, UniProt Q9F663); format: biochemical
KPC-2 [2] = biological target: T1, KPC-2; format: biochemical; remark: listed apart in the source

T1 sequence (Q9F663 25-293 limits assumed): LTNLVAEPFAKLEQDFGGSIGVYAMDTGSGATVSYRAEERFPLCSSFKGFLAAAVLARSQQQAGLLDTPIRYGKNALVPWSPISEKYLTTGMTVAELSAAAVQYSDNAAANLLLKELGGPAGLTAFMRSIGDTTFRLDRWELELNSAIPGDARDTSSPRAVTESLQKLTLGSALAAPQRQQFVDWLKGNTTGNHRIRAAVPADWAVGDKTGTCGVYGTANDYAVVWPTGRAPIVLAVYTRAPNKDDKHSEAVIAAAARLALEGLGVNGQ

| SMILES | hydrolysis progress curves at 300 nm, 30 nM purified enzyme, 50 μM meropenem (KPC-2 [1]) | steady-state hydrolysis kinetics (Michaelis-Menten), purified enzyme (KPC-2 [2]) |
| --- | --- | --- |
| C[C@@H](O)[C@H]1C(=O)N2C(C(=O)O)=C(S[C@@H]3CN[C@H](C(=O)N(C)C)C3)[C@H](C)[C@H]12 [meropenem] | Compared with KPC-2, catalytic efficiencies of KPC-87 for nitrocefin and meropenem decreased sharply |  |
| O=C(Cc1cccs1)N[C@@H]1C(=O)N2C(C(=O)O)=C(/C=C/c3ccc([N+](=O)[O-])cc3[N+](=O)[O-])CS[C@H]12 [nitrocefin] |  | Compared with KPC-2, catalytic efficiencies of KPC-87 for nitrocefin and meropenem decreased sharply |
